Test results reported in US20150258101A1 (Proximagen Limited, priority 2014, published 2015).

Columns and labels:
[1] = target: T1, human ether a go-go related gene (hERG) K+ channel (Homo sapiens, UniProt Q12809); assay: hERG assay, IonWorks patch clamp electrophysiology; assay type: cell-based; details: Chinese Hamster Lung cell line stably expressing hERG; max assay concentration 11 uM
T1 construct: a Chinese Hamster Lung cell line stably expressing the full length hERG channel; expressed in transfected cells; host or cells: Chinese Hamster Lung cell line
T1 sequence (Q12809 whole entry): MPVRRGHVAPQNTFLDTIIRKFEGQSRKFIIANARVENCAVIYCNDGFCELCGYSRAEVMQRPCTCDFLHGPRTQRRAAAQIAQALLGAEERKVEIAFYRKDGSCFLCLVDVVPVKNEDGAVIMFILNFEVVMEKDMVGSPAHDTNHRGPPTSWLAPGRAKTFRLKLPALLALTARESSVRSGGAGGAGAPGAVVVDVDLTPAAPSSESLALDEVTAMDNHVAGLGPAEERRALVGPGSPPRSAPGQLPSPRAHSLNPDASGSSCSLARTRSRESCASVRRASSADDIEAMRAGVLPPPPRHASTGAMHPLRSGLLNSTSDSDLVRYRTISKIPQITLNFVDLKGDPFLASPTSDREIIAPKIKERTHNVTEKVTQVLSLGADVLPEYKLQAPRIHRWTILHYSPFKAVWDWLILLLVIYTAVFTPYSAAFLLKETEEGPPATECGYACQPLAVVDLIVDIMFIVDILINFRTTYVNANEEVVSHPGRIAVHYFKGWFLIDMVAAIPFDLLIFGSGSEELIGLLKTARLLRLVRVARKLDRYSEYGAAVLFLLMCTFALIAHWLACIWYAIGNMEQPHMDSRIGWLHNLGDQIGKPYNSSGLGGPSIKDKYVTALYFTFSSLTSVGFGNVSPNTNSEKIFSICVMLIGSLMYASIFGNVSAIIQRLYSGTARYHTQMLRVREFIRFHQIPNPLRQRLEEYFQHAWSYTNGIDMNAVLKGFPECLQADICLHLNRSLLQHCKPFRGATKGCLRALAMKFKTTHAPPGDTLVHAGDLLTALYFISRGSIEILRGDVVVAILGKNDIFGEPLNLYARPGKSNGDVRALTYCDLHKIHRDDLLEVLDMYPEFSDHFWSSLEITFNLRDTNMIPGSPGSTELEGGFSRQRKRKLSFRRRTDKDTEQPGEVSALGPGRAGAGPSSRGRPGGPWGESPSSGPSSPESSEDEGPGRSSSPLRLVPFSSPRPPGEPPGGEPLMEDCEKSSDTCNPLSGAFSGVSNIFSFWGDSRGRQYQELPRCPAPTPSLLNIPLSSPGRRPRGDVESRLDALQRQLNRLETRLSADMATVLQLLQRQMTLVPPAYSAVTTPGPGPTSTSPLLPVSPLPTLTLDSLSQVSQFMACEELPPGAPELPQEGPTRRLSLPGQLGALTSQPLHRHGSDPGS
Experimental: Compounds of the invention were tested for inhibition of the human ether a go-go related gene (hERG) K^+ channel using IonWorks patch clamp electrophysiology. 8 Point concentration-response curves were generated on two occasions using 3-fold serial dilutions from the maximum assay concentration (11 uM). Electrophysiological recordings were made from a Chinese Hamster Lung cell line stably expressing the full length hERG channel. Single cell ion currents were measured in the perforated patch clamp configuration (100 ug/mL amphoterocin) at room temperature using an IonWorks Quattro instrument. The internal solution contained 140 mM KCl, 1 mM MgCl2, 1 mM EGTA and 20 mM HEPES and was buffered to pH 7.3. The external solution contained 138 mM NaCl, 2.7 mM KCl, 0.9 mM CaCl2, 0.5 mM MgCl2, 8 mM Na2HPO4 and 1.5 mM KH2PO4, and was buffered to pH 7.3. […] This sequence was repeated 5 times at a frequency of 0.25 Hz. Currents were measured from the tail step at the 5th pulse, and referenced to the holding current. Compounds were incubated for 6-7 min prior to a second measurement of the hERG signal using an identical pulse train. […] A control compound (quinidine) was used (see Table 20 below).

[2] = target: T2, purified recombinantly expressed human SSAO (Homo sapiens, UniProt Q16853); assay: SSAO enzyme inhibition assay (benzylamine substrate; hydrogen peroxide/HRP-coupled or 14C aldehyde detection); assay type: biochemical; details: SSAO inhibitory activity, RT
T2 construct: made in house
T2 sequence (Q16853 1-763): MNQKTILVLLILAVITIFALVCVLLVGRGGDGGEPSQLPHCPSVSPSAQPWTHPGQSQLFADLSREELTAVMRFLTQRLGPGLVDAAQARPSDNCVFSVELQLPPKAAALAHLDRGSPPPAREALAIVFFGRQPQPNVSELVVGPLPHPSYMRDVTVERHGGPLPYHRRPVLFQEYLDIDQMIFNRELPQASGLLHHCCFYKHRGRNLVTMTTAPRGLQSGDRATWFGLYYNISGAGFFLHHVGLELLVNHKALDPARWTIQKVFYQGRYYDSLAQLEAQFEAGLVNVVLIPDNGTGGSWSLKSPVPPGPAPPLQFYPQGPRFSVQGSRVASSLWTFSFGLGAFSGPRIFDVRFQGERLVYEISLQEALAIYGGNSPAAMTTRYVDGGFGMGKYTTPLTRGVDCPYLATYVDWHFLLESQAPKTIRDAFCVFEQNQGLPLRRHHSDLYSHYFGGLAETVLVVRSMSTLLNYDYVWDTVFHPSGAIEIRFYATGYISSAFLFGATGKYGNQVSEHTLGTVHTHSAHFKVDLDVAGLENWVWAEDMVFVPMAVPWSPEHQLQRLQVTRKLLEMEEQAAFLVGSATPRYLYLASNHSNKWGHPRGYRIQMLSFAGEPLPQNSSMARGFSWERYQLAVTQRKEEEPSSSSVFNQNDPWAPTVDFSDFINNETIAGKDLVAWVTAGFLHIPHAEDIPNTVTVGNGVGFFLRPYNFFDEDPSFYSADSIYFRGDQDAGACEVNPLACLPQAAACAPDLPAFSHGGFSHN
In short: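 IC50 values came from a four-parameter logistic fit of % signal decrease versus DMSO control, with no-enzyme background subtracted. Two read-outs were used with human recombinant SSAO after ~15 min compound pre-incubation at RT. In the H2O2/HRP-Amplex read-out, enzyme was 1 ug/ml and benzylamine 100 uM (pH 7.4 phosphate), with resorufin fluorescence followed 1-2 h. In the 14C-benzaldehyde read-out (PBS), enzyme was 10 ug/ml and benzylamine 40 uM, run 1 h then acid-stopped.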

| Compound | IC50 [1] [nM] | IC50 [2] [nM] |
| --- | --- | --- |
| Clc1ccc(-n2c(-c3cccnc3)cc3ccncc32)cc1 [Example 122, 3-[1-(4-Chlorophenyl)-1H-pyrrolo[2,3-c]pyridin-2-yl]pyridine] | 1000 to 10000 | 50 to 200 |
| Clc1ccc(-n2c(-c3cnc(N4CCOCC4)nc3)cc3ccncc32)cc1 [Example 127, 4-{5-[1-(4-Chlorophenyl)-1H-pyrrolo[2,3-c]pyridin-2-yl]pyrimidin-2-yl}morpholine] | 100 to 1000 | < 50 |
| O=C1CN(c2ncc(-c3cc4ccncc4n3-c3ccc(Cl)cc3)cn2)CCN1 [Example 128, 4-{5-[1-(4-Chlorophenyl)-1H-pyrrolo[2,3-c]pyridin-2-yl]pyrimidin-2-yl}piperazin-2-one] | > 10000 | < 50 |
| O=c1cc(-c2cc3ccncc3n2-c2ccc(Cl)cc2)ccn1C1CC1 [Example 138, 4-[1-(4-Chlorophenyl)-1H-pyrrolo[2,3-c]pyridin-2-yl]-1-cyclopropyl-1,2-dihydropyridin-2-one] | 1000 to 10000 | < 50 |
| Clc1ccc(-n2c(-c3cnc(NC4CCOCC4)nc3)cc3ccncc32)cc1 [Example 139, 5-[1-(4-Chlorophenyl)-1H-pyrrolo[2,3-c]pyridin-2-yl]-N-(oxan-4-yl)pyrimidin-2-amine] | 100 to 1000 | < 50 |
| Clc1ccc(-n2c(-c3ccc(CN4CCOCC4)nc3)cc3ccncc32)cc1 [Example 140, 4-({5-[1-(4-Chlorophenyl)-1H-pyrrolo[2,3-c]pyridin-2-yl]pyridin-2-yl}methyl)morpholine] | 1000 to 10000 | < 50 |
| O=c1cc(-c2cc3ccncc3n2-c2ccc(Cl)cc2)cc[nH]1 [Example 142, 4-[1-(4-Chlorophenyl)-1H-pyrrolo[2,3-c]pyridin-2-yl]-1,2-dihydropyridin-2-one] | 1000 to 10000 | 50 to 200 |
| Nc1cc(-c2cc3ccncc3n2-c2ccc(Cl)cc2)ccn1 [Example 147, 4-[1-(4-Chlorophenyl)-1H-pyrrolo[2,3-c]pyridin-2-yl]pyridin-2-amine] | 1000 to 10000 | < 50 |
| Fc1cnccc1-c1cc2ccncc2n1-c1ccc(Cl)cc1 [Example 152, 4-[1-(4-Chlorophenyl)-1H-pyrrolo[2,3-c]pyridin-2-yl]-3-fluoropyridine] | 1000 to 10000 | 200 to 1200 |
| Clc1ccc(-n2c(-c3ccncc3Cl)cc3ccncc32)cc1 [Example 153, 3-Chloro-4-[1-(4-chlorophenyl)-1H-pyrrolo[2,3-c]pyridin-2-yl]pyridine] | 1000 to 10000 | 50 to 200 |
